ChEMBL document CHEMBL1151314, “Phenylethanoid glycosides from Digitalis purpurea and Penstemon linarioides with PKCalpha-inhibitory activity” (J Nat Prod, 1998)

Target: Protein kinase C alpha type (Homo sapiens, UniProt P17252)
Assay: Inhibition of human recombinant PKCalpha

IC50 | Structure (SMILES)
9.3 µM | C[C@@H]1O[C@@H](O[C@@H]2[C@@H](O)[C@H](OCCc3ccc(O)c(O)c3)O[C@H](CO)[C@H]2OC(=O)/C=C/c2ccc(O)c(O)c2)[C@H](O)[C@H](O)[C@H]1O [ACETOSIDE]
14.8 µM | O=C(/C=C/c1ccc(O)c(O)c1)OC[C@H]1O[C@@H](OCCc2ccc(O)c(O)c2)[C@H](O)[C@@H](O[C@@H]2O[C@H](CO)[C@@H](O)[C@H](O)[C@H]2O)[C@@H]1O [PLANTAINOSIDE D]
24.4 µM | C[C@@H]1O[C@@H](OC[C@H]2O[C@@H](OCCc3ccc(O)c(O)c3)[C@H](O)[C@@H](O[C@@H]3O[C@@H](C)[C@H](O)[C@@H](O)[C@H]3O)[C@@H]2OC(=O)/C=C/c2ccc(O)c(O)c2)[C@H](O)[C@H](O)[C@H]1O [POLIUMOSIDE]

Second part, the molecule before the results:

Structure (SMILES) | IC50
COc1ccc(CCO[C@@H]2O[C@H](CO[C@@H]3O[C@@H](C)[C@H](O)[C@@H](O)[C@H]3O)[C@@H](OC(=O)/C=C/c3ccc(O)c(OC)c3)[C@H](O[C@@H]3O[C@@H](C)[C@H](O)[C@@H](O)[C@H]3O)[C@H]2O)cc1O | 125 µM
O=C(/C=C/c1ccc(O)c(O)c1)O[C@H]1[C@H](O)[C@@H](O)[C@H](OCCc2ccc(O)c(O)c2)O[C@@H]1CO [CALCEOLARIOSIDE A] | 0.6 µM
O=C(/C=C/c1ccc(O)c(O)c1)OC[C@H]1O[C@@H](OCCc2ccc(O)c(O)c2)[C@H](O)[C@@H](O)[C@@H]1O [CALCEOLARIOSIDE B] | 4.6 µM
C[C@@H]1O[C@@H](OC[C@H]2O[C@@H](OCCc3ccc(O)c(O)c3)[C@H](O)[C@@H](O)[C@@H]2OC(=O)/C=C/c2ccc(O)c(O)c2)[C@H](O)[C@H](O)[C@H]1O [FORSYTHIASIDE] | 1.9 µM
COc1cc(/C=C/C(=O)O[C@H]2[C@H](O[C@@H]3O[C@@H](C)[C@H](O)[C@@H](O)[C@H]3O)[C@@H](O)[C@H](OCCc3ccc(O)c(O)c3)O[C@@H]2CO)ccc1O [LEUCOSCEPTOSIDE A] | 19 µM
